Results from ChEMBL document CHEMBL5252615, “Synthesis, biological activity and mechanism of action of novel allosecurinine derivatives as potential antitumor agents” (Bioorg Med Chem, 2023).
Calls of active or inactive are those of the source. The calls are words filed in the database; no cut-off is given here.

Assays:
K562 [1] = assay: Induction of apoptosis in human K562 cells assessed as decrease in expression level of Bcl-2 measured after 48 hrs by Western blotting analysis; type: functional, cell-based; settings: dose 1-5 µM
U-937 [2] = assay: Induction of apoptosis in human U-937 cells assessed as decrease in expression level of Bcl-2 measured after 48 hrs by Western blotting analysis; type: functional, cell-based; settings: dose 1-5 µM
KG-1 [3] = assay: Induction of apoptosis in human KG-1 cells assessed as decrease in expression level of Bcl-2 measured after 48 hrs by Western blotting analysis; type: functional, cell-based; settings: dose 1-5 µM
NB-4 [4] = assay: Induction of apoptosis in human NB4 cells assessed as decrease in expression level of Bcl-2 measured after 48 hrs by Western blotting analysis; type: functional, cell-based; settings: dose 1-5 µM
HL-60 [5] = assay: Antitumor activity against human HL-60 cells assessed as reduction in cell viability incubated for 72 hrs; type: functional, cell-based; settings: HL-60, 72 h
K562 [6] = assay: Antitumor activity against human K562 cells assessed as reduction in cell viability incubated for 72 hrs; type: functional, cell-based; settings: K562, 72 h
SU-DHL-2 = assay: Antitumor activity against human SUDHL2 cells assessed as reduction in cell viability incubated for 72 hrs; type: functional, cell-based; settings: SU-DHL-2, 72 h
SK-OV-3 = assay: Antitumor activity against human SK-OV-3 cells assessed as reduction in cell viability incubated for 72 hrs; type: functional, cell-based; settings: SK-OV-3, 72 h
NB-4 [7] = assay: Induction of differentiation of human NB4 cells assessed as increase in CD11b expression at 0.5 uM measured after 72 hrs by flow cytometric analysis; type: functional, cell-based
HL-60 [8] = assay: Induction of differentiation of human HL-60 cells assessed as increase in CD11b expression at 0.5 uM measured after 72 hrs by flow cytometric analysis; type: functional, cell-based
THP-1 [9] = assay: Induction of differentiation of human THP1 cells assessed as increase in CD11b expression at 0.5 uM measured after 72 hrs by flow cytometric analysis; type: functional, cell-based
KG-1 [10] = assay: Induction of differentiation of human KG-1 cells assessed as increase in CD11b expression at 0.5 uM measured after 72 hrs by flow cytometric analysis; type: functional, cell-based
NB-4 [11] = assay: Induction of apoptosis in human NB4 cells assessed as late apoptotic cells at 2.5 uM after 48 hrs by Annexin-V-FITC/PI staining based flow cytometric analysis (reference value: 0.89%); type: functional
HL-60 [12] = assay: Induction of apoptosis in human HL-60 cells assessed as viable cells at 2.5 uM after 48 hrs by Annexin-V-FITC/PI staining based flow cytometric analysis (reference value: 96.05%); type: functional; settings: read-out: Activity
KG-1 [13] = assay: Induction of apoptosis in human KG-1 cells assessed as viable cells at 2.5 uM after 48 hrs by Annexin-V-FITC/PI staining based flow cytometric analysis (reference value: 96.41%); type: functional
KG-1 [14] = assay: Induction of apoptosis in human KG-1 cells assessed as necrotic cells at 2.5 uM after 48 hrs by Annexin-V-FITC/PI staining based flow cytometric analysis (reference value: 2.73%); type: functional
K562 [15] = assay: Induction of apoptosis in human K562 cells assessed as viable cells at 2.5 uM after 48 hrs by Annexin-V-FITC/PI staining based flow cytometric analysis (reference value: 97.34%); type: functional; settings: read-out: Activity
K562 [16] = assay: Induction of apoptosis in human K562 cells assessed as early apoptotic cells at 2.5 uM after 48 hrs by Annexin-V-FITC/PI staining based flow cytometric analysis (reference value: 1.26%); type: functional
K562 [17] = assay: Induction of apoptosis in human K562 cells assessed as late apoptotic cells at 2.5 uM after 48 hrs by Annexin-V-FITC/PI staining based flow cytometric analysis (reference value: 0.21%); type: functional
THP-1 [18] = assay: Induction of apoptosis in human THP-1 cells assessed as necrotic cells at 2.5 uM after 48 hrs by Annexin-V-FITC/PI staining based flow cytometric analysis (reference value: 0.19%); type: functional
HL-60 [19] = assay: Induction of apoptosis in human HL-60 cells assessed as accumulation of cells at sub-G1 phase at 2.5 uM after 48 hrs by PI staining based flow cytometric analysis; type: functional, cell-based
THP-1 [20] = assay: Induction of apoptosis in human THP-1 cells assessed as accumulation of cells at sub-G1 phase at 2.5 uM after 48 hrs by PI staining based flow cytometric analysis; type: functional, cell-based
K562 [21] = assay: Induction of apoptosis in human K562 cells assessed as accumulation of cells at sub-G1 phase at 2.5 uM after 48 hrs by PI staining based flow cytometric analysis; type: functional, cell-based
U-937 [22] = assay: Induction of apoptosis in human U-937 cells assessed as accumulation of cells at G1 phase at 1 to 2.5 uM after 48 hrs by PI staining based flow cytometric analysis; type: functional, cell-based; settings: dose 1-2.5 µM
KG-1 [23] = assay: Induction of apoptosis in human KG-1 cells assessed as change in mitochondrial membrane potential after 48 hrs by JC-1 staining based flow cytometric analysis; type: functional, cell-based
U-937 [24] = assay: Induction of apoptosis in human U-937 cells assessed as change in mitochondrial membrane potential after 48 hrs by JC-1 staining based flow cytometric analysis; type: functional, cell-based
KG-1 [25] = assay: Induction of reactive oxygen species production in human KG-1 cells at 1 to 5 uM measured after 48 hrs by DCF fluorescence analysis; type: functional, cell-based; settings: dose 1-5 µM
NB-4 [26] = assay: Induction of apoptosis in human NB4 cells assessed as decrease in expression level of XIAP measured at 1 to 5 uM after 48 hrs by Western blotting analysis; type: functional, cell-based; settings: dose 1-5 µM
KG-1 [27] = assay: Induction of apoptosis in human KG-1 cells assessed as decrease in expression level of XIAP measured at 1 to 5 uM after 48 hrs by Western blotting analysis; type: functional, cell-based; settings: dose 1-5 µM
KG-1 [28] = assay: Induction of apoptosis in human KG-1 cells assessed as decrease in expression level of YAP1 measured at 1 to 5 uM after 48 hrs by Western blotting analysis; type: functional, cell-based; settings: dose 1-5 µM
K562 [29] = assay: Induction of apoptosis in human K562 cells assessed as decrease in expression level of YAP1 measured at 1 to 5 uM after 48 hrs by Western blotting analysis; type: functional, cell-based; settings: dose 1-5 µM
NB-4 [30] = assay: Induction of apoptosis in human NB4 cells assessed as decrease in expression level of caspase 3/9 measured at 1 to 5 uM after 48 hrs by Western blotting analysis; type: functional, cell-based; settings: dose 1-5 µM
THP-1 [31] = assay: Induction of apoptosis in human THP-1 cells assessed as decrease in expression level of PARP measured at 1 to 5 uM after 48 hrs by Western blotting analysis; type: functional, cell-based; settings: dose 1-5 µM
THP-1 [32] = assay: Induction of apoptosis in human THP-1 cells assessed as increase in expression level of p21 measured at 1 to 5 uM after 48 hrs by Western blotting analysis; type: functional, cell-based; settings: dose 1-5 µM
U-937 [33] = assay: Induction of apoptosis in human U-937 cells assessed as increase in expression level of p21 measured at 1 to 5 uM after 48 hrs by Western blotting analysis; type: functional, cell-based; settings: dose 1-5 µM

O=C1O[C@@]23C[C@@H](C=CC2=C1C(O)c1ccc([N+](=O)[O-])cc1)N1CCCC[C@H]13 (stereo not given in full)
Activity (K562 [1]): Dose-Dependent Effect
Activity (U-937 [2]): Dose-Dependent Effect
Activity (KG-1 [3]): Dose-Dependent Effect
Activity (NB-4 [4]): Dose-Dependent Effect
IC50 (HL-60 [5]): 3.95 µM
IC50 (K562 [6]): 1.78 µM
IC50 (SU-DHL-2): 8.68 µM
IC50 (SK-OV-3): 4.84 µM
Activity (NB-4 [7]): Active
Activity (HL-60 [8]): Active
Activity (THP-1 [9]): Active
Activity (KG-1 [10]): Active
Activity (NB-4 [11]): 50.58%
viability at 2.5 µM (HL-60 [12]): 73%
Activity (KG-1 [13]): 45.18%
Activity (KG-1 [14]): 7.79%
viability at 2.5 µM (K562 [15]): 77.5%
Activity (K562 [16]): 3.32%
Activity (K562 [17]): 12.56%
Activity (THP-1 [18]): 1.76%
Activity (HL-60 [19]): Active
Activity (THP-1 [20]): Active
Activity (K562 [21]): Active
Activity (U-937 [22]): Active
Activity (KG-1 [23]): Active
Activity (U-937 [24]): Active
Activity (KG-1 [25]): Active
Activity (NB-4 [26]): Active
Activity (KG-1 [27]): Active
Activity (KG-1 [28]): Active
Activity (K562 [29]): Active
Activity (NB-4 [30]): Active
Activity (THP-1 [31]): Active
Activity (THP-1 [32]): Active
Activity (U-937 [33]): Active
